Test results reported in US10293026B2, “Agent for preventing or treating demyelinating disease” (Osaka University, priority 2014, dated 2019).

Experiments:
[1] = tested on: oligodendrocyte precursor cells; test: BrdU uptake by oligodendrocyte precursor cells with culture supernatant of cardiomyocytes and FGFR inhibitors (Example 1); assay type: cell-based, C57BL/6j mice; conditions: SU5402 at 10, 30, 100 μM or PD173074 at 0.03, 0.1, 0.3, 1 μM added with supernatant; FIG. 1
Description: Hearts extracted from C57BL/6j mice (postnatal day 1-old) were minced, and then poured into 1 mg/ml of Type 1 collagenase (Worthington) and shaken at 37° C. for 20 minutes. The obtained cell suspension was pipetted and allowed to stand, and then the supernatant was collected. Remaining cardiomyocytes after the collection of the supernatant were again poured into 1 mg/ml of Type 1 collagenase (Worthington) and shaken at 37° C. for 20 minutes, and then the supernatant was collected. This operation was repeated three times. The collected supernatant was suspended in MEM ([…]) containing 5% calf serum, and the cell suspension was poured into a culture dish. After 30 minutes, suspension cells were collected, and were resuspended in MEM containing 5% calf serum and then centrifuged (2000 rpm, 6 minutes). […]
The harvested oligodendrocyte precursor cells were seeded in a poly-L-lysine (Sigma)-coated plastic tissue culture dish, and cultured in a medium for 1 day (37° C., 5% CO2). […] Bromodeoxyuridine (BrdU) was subsequently added and cultured at 37° C. for 24 hours, and then the cells were collected; the BrdU uptake was then detected using the cell proliferation ELISA, BrdU colorimetric kit (Roche). As a control, the BrdU uptake was measured under the same conditions as those described above, except that the culture supernatant of cardiomyocytes was not added. […]

[2] = tested on: oligodendrocyte precursor cells; test: BrdU uptake by oligodendrocyte precursor cells with recombinant FGFs (Example 3); assay type: cell-based, C57BL/6j mice; conditions: FGF at 10, 30 or 100 ng/ml, vs saline control; FIG. 3
Description: Recombinant FGF15 (Abcam), FGF21 (R&D), or FGF23 (R&D) was diluted in saline solution immediately before use to prepare an each FGF-containing solution. Oligodendrocyte precursor cells were harvested from C57BL/6j mice (postnatal day 1-old) brains, as in Example 1.
Initially, the oligodendrocyte precursor cells were seeded in a poly-L-lysinde (Sigma)-coated plastic tissue culture dish, and cultured in the following medium for 1 day (37° C., 5% CO2). The medium used was DMEM containing 4 mM L-gludamine (Sigma), 1 mM sodium pyruvate (Sigma), 0.1% bovine serum albumin (Sigma), 50 μg/ml apo-Transferrin (Sigma), 5 μg/ml insulin (Sigma), 30 nM sodium selenite (Sigma), 10 nM biotin (Sigma), 10 nM hydrocortisone (Sigma), 10 ng/ml Platelet-Derived Growth Factor-AA (Peprotech), and 10 ng/ml basic fibroblast growth factor (Peprotech). Thereafter, each type of FGF-containing solution was added to the culture medium of oligodendrocyte precursor cells such that the concentration of each type of FGF was 10 ng/ml, 30 ng/ml, or 100 ng/ml, and the cells were cultured at 37° C. for 24 hours. BrdU was subsequently added and cultured at 37° C. for 24 hours, and then the cells were collected; the BrdU uptake was then detected using the cell proliferation ELISA, BrdU colorimetric kit (Roche). As a control, an equivalent amount of saline solution was used instead of the FGF21-containing solution, and the BrdU uptake was measured under the same conditions as those described above. This experiment studied three cases for each group.

Molecule | increase in the BrdU uptake by culture supernatant of cardiomyocytes [1] | BrdU uptake by the oligodendrocyte precursor cells [2]
CCN(CC)CCCCNc1ncc2cc(-c3cc(OC)cc(OC)c3)c(NC(=O)NC(C)(C)C)nc2n1 [PD173074] | suppressed | –
Cc1c[nH]c(/C=C2\C(=O)Nc3ccccc32)c1CCC(=O)O [SU5402] | suppressed | –
FGF23: Recombinant FGF23 (R&D), comparison FGF subtype (protein, UniProt Q9GZV9 25-251, looked up) Fibroblast growth factor 23: YPNASPLLGSSWGGLIHLYTATARNSYHLQIHKNGHVDGAPHQTIYSALMIRSEDAGFVVITGVMSRRYLCMDFRGNIFGSHYFDPENCRFQHQTLENGYDVYHSPQYHFLVSLGRAKRAFLPGMNPPPYSQFLSRRNEIPLIHFNTPIPRRHTRSAEDDSERDPLNVLKPRARMTPAPASCSQELPSAEDNSPMASDPLGVVRGGRVNTHAGGTGPEGCRPFAKFI | – | significant difference in the amounts of BrdU uptake was not observed
FGF15: Recombinant FGF15 (Abcam), comparison FGF subtype (protein, UniProt O35622 26-218, looked up) Fibroblast growth factor 15: RPLAQQSQSVSDEDPLFLYGWGKITRLQYLYSAGPYVSNCFLRIRSDGSVDCEEDQNERNLLEFRAVALKTIAIKDVSSVRYLCMSADGKIYGLIRYSEEDCTFREEMDCLGYNQYRSMKHHLHIIFIQAKPREQLQDQKPSNFIPVFHRSFFETGDQLRSKMFSLPLESDSMDPFRMVEDVDHLVKSPSFQK | – | significant difference in the amounts of BrdU uptake was not observed
